Assay results: ChEMBL document CHEMBL1138727 (Bioorg Med Chem Lett, 2004)

Experiments:
[1] = target: T1, DNA-dependent protein kinase catalytic subunit (Homo sapiens, UniProt P78527); experiment: Inhibitory activity against DNA-dependent protein kinase (DNA-PK)
[2] = target: Serine/threonine-protein kinase ATR (Homo sapiens, UniProt Q13535); experiment: Inhibition of Ataxia telangiectasia related protein ATR kinase
[3] = target: Serine/threonine-protein kinase mTOR (Homo sapiens, UniProt P42345); experiment: Inhibition of Mammalian target of Rapamycin mTOR
[4] = target: Serine-protein kinase ATM (Homo sapiens, UniProt Q13315); experiment: Inhibition of Mutated in ataxia telangiectasia protein ATM kinase
Sequence of Serine-protein kinase ATM (Q13315 2-3056 limits assumed, stated change not applied): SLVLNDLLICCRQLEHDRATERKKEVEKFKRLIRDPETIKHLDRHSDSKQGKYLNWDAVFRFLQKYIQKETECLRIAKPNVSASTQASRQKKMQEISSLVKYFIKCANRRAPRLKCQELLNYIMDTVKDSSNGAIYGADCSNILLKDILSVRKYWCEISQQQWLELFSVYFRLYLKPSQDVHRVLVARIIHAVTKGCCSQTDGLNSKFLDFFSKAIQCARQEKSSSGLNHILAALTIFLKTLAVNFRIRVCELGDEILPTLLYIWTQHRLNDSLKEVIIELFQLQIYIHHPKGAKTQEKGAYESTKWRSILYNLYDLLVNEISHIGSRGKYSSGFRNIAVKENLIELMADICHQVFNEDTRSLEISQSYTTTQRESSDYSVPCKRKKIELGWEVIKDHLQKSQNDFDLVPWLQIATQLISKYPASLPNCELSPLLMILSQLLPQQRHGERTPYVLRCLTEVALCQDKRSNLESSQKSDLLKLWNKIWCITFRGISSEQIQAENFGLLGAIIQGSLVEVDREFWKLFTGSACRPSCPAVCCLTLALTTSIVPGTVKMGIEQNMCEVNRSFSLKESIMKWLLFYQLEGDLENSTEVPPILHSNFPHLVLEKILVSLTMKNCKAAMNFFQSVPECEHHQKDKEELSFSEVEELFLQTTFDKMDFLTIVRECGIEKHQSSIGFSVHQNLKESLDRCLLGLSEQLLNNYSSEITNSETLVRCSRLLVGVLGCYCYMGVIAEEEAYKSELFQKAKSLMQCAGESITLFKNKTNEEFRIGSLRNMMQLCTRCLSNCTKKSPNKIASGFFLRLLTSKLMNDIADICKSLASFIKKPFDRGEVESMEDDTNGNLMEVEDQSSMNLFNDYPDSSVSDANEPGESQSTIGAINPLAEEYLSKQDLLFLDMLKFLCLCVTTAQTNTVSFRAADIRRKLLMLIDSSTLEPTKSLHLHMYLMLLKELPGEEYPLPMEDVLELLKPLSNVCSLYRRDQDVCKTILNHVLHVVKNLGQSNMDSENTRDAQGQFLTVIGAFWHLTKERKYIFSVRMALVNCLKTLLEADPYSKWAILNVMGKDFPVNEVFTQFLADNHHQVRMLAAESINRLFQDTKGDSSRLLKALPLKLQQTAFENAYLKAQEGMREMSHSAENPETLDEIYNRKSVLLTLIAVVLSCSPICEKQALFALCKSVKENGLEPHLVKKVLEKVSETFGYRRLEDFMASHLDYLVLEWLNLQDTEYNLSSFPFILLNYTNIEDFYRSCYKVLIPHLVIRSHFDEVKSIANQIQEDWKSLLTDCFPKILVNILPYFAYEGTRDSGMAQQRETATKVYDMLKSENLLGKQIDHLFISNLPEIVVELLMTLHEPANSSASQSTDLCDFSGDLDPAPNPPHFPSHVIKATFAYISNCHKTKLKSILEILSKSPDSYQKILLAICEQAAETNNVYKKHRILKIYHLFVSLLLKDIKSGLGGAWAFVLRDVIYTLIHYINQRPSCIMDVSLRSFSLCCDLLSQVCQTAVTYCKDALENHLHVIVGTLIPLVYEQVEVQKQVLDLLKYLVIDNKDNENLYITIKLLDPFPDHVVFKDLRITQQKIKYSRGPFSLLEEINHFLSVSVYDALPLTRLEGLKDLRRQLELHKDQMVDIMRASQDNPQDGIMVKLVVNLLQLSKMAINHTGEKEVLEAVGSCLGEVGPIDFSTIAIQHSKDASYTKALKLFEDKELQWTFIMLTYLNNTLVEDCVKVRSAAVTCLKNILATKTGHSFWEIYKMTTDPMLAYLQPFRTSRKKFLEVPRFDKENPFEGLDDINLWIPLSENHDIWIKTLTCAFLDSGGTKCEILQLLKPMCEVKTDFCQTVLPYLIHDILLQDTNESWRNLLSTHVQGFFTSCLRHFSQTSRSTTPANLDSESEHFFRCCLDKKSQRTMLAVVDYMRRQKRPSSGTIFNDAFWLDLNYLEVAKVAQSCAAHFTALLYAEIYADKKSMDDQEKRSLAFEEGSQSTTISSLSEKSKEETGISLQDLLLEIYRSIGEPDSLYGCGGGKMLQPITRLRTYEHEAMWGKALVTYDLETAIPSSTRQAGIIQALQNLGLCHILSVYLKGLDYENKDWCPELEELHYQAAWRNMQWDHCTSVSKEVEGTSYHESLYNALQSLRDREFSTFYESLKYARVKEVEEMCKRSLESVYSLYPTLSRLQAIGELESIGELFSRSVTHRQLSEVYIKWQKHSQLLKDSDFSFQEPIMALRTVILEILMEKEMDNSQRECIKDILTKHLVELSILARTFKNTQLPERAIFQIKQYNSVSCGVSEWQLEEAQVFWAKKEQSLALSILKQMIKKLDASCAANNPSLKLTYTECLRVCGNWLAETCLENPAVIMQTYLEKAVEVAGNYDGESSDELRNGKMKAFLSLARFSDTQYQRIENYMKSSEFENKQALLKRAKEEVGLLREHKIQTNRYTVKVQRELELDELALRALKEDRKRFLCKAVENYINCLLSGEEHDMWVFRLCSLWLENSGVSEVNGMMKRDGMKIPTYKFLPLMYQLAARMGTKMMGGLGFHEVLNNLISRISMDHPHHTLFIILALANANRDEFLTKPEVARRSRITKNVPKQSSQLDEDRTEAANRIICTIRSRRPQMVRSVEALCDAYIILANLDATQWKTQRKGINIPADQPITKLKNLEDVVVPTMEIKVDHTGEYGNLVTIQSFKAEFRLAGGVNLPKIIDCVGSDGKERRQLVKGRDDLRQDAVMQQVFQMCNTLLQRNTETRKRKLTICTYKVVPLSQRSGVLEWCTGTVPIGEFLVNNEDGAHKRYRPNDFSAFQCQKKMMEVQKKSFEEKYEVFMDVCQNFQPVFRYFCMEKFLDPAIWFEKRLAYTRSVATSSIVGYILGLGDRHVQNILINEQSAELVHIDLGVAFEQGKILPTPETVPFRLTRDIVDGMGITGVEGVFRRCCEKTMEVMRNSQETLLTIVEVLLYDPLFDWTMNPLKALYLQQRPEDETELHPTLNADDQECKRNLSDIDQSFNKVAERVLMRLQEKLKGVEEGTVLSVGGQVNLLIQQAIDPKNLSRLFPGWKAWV

[5] = target: T1, DNA-dependent protein kinase catalytic subunit; experiment: Inhibitory activity against DNA-dependent protein kinase (DNA-PK) at 0.5 uM
[6] = target: Phosphatidylinositol 4,5-bisphosphate 3-kinase catalytic subunit alpha isoform (Homo sapiens, UniProt P42336); experiment: Inhibition of Phosphatidylinositol 3-kinase p110 alpha subunit
Sequence of Phosphatidylinositol 4,5-bisphosphate 3-kinase catalytic subunit alpha isoform (P42336 whole entry, canonical isoform): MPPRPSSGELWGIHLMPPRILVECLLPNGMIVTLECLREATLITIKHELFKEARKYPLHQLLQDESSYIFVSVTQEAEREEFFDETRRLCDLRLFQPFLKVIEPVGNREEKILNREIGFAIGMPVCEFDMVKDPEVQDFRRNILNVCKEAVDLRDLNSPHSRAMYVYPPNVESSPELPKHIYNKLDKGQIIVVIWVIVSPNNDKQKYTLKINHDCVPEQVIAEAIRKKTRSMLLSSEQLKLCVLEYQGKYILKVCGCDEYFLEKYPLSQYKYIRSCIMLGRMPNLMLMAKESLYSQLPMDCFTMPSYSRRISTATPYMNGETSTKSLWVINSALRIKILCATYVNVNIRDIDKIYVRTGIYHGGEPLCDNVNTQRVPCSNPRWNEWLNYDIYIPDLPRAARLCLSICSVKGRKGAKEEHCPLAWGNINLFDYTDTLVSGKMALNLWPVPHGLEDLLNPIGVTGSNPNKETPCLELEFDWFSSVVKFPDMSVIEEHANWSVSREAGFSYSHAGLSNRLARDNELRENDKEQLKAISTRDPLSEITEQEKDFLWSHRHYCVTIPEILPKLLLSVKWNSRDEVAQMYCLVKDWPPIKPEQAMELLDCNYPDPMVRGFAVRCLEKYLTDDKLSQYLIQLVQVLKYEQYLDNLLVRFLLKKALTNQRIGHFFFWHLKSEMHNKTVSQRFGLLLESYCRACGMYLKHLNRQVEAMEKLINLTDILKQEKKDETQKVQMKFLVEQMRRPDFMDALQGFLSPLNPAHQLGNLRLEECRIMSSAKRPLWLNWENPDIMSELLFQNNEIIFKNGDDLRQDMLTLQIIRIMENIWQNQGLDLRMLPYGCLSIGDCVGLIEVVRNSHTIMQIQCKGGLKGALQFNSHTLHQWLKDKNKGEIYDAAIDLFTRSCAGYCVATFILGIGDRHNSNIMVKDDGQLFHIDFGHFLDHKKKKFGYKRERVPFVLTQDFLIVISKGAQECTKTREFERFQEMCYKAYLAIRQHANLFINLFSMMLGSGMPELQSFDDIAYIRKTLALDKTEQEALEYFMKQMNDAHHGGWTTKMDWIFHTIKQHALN

`O=c1cc(N2CCOCC2)oc2c(-c3ccccc3)cccc12` [LY-294002] showed an IC50 [1] of 1200 nM, an IC50 [2] greater than 100000 nM and an IC50 [3] of 2500 nM. For the same molecule, the IC50 [4] was greater than 100000 nM.

With `O=c1cc(N2CCOCC2)oc2c(-c3cc4ccccc4s3)cccc12` the IC50 [5] was 800 nM.

`O=c1cc(N2CCOCC2)oc2c(-c3cccc4c3oc3ccccc34)cccc12` showed an IC50 [5] of 40 nM.

`COc1ccc(-c2cccc3c(=O)cc(N4CCOCC4)oc23)cc1` was tested, and the IC50 [5] was 900 nM.

Molecule `O=c1cc(N2CCOCC2)oc2c(-c3cccc4c3sc3ccccc34)cccc12` has an IC50 [1] of 14 nM, an IC50 [5] of 20 nM and an IC50 [2] greater than 100000 nM. For the same molecule, the IC50 [3] was 1700 nM, the IC50 [6] was 5000 nM and the IC50 [4] was greater than 100000 nM.

`O=c1cc(N2CCOCC2)oc2c(-c3cccs3)cccc12` was tested, and the IC50 [5] was 300 nM.

`CC(=O)c1ccc(-c2cccc3c(=O)cc(N4CCOCC4)oc23)s1` was tested, and the IC50 [5] was 800 nM.

With `O=c1cc(N2CCOCC2)oc2c(-c3ccsc3)cccc12` the IC50 [5] was 300 nM.

`O=c1cc(N2CCOCC2)oc2ccccc12` was tested, and the IC50 [5] was 1300 nM.

Work on `O=c1cc(N2CCOCC2)oc2c(-c3ccc(CO)cc3)cccc12` yielded an IC50 [5] of 600 nM.

Molecule `O=c1cc(N2CCOCC2)oc2c1ccc1ccccc12` has an IC50 [2] greater than 100000 nM, an IC50 [3] of 6400 nM and an IC50 [6] of 13000 nM. For the same molecule, the IC50 [4] was greater than 100000 nM.

`CC1CN(c2cc(=O)c3ccc4ccccc4c3o2)CCO1` (stereo not drawn) gave an IC50 [5] of 190 nM.
